Source: patent US9402848B2, “Method for treating pain syndrome and other disorders” (VM Therapeutics LLC, priority 2008, dated 2016)

Key:
[1] = tested on: Carrageenan-induced pain in rat animal model of hyperalgesia; experiment: Carrageenan-induced pain in rat animal model of hyperalgesia; assay type: in vivo; conditions: FIG. 2 and FIG. 3
[2] = tested on: Formalin induced pain in rat animal models of hyperalgesia; experiment: Rat Formalin Paw Test; assay type: in vivo; conditions: FIG. 1
Experimental: Rat Formalin Paw Test (in Vivo Assay): Compounds were assessed for their ability to inhibit the behavioral response evoked by an injection of formalin (50 μl of 5% formalin). A metal band was affixed to the left hind paw of male Holtzman rats (225-250 g, Harlan Industries, Indianapolis Ind.) and each rat was conditioned to the band for 60 min within a plastic cylinder (15 cm diameter). Rats were dosed with either vehicle, positive control compound or a test compound either before (local) or after (systemic) formalin challenge. For local administration, compounds were prepared in either a 1:1.5 vehicle of saline (in mL) and (D)- or (L)-Tartaric acid (in mg), or a 1:1:6 vehicle of DMA (N,N-Dimethylacetamide), Tween 80 and saline, and injected […] into the dorsal surface of the right hind paw of the rat 60 min prior to formalin. The number of flinches was counted continuously for 60 min using an automated nociception analyzer (UCSD Anesthesiology Research, San Diego, Calif.). Statistical significance was determined by comparing the total flinches detected in the early (0-10 min, Phase I) and late (11-60 min) phase with an unpaired t-test. […]

Cc1nc2ccccn2c(=O)c1CCN1CCC(C(=O)c2ccc(F)cc2)CC1 [Compound 10, 3-(2-{4-[(4-fluorophenyl)carbonyl]piperidin-1-yl}ethyl)-2-methyl-4H-pyrido[1,2-a]pyrimidin-4-one]
reduction of Carrageenan-induced pain [1]: reduction of Carrageenan-induced pain
reduction of Formalin induced pain [2]: reduction of Formalin induced pain
